Test results: PMC13144739, “Global analysis of cancer cell responses to USP9X inhibition” (The EMBO Journal, 2026)

What was measured:
CEP55 = CEP55 degradation by Western Blot in MDA-MB-231 cells; type: cell-based, human
Experimental: The next day, cells were lysed in DISC lysis buffer (20 mM TRIS/HCl [pH 7.5], 150 mM NaCl, 2 mM EDTA [pH 8.0], 1% [v/v] Triton X 100, 10% [v/v] glycerol) supplemented with 2% (w/v) SDS and PhosSTOP tablets (Roche). To shred DNA, DISC lysates were run through polypropylene columns (Pierce). […] Next, membranes were washed twice in TBS-T and incubated with primary antibodies at 4 °C o/n. Primary antibodies were diluted in antibody dilution buffer (5% [w/v] BSA [pH 5.2, Sigma-Aldrich] in TBS-T with 0.04% [v/v] sodium azide) as per the manufacturer’s instructions. […] Next, membranes were washed four times for 5 min each in TBS-T. Membranes were developed in ECL (Bio-Rad) and imaged using the ChemiDoc imaging system (Bio-Rad). Images were processed using Image Lab software.
Appendix Fig S4. WEHI-092 phenotypes across cell lines.
(A) IC50 of USP9X inhibitors in MDA-MB-231 cells measured via degradation of the USP9X substrate CEP55 by Western Blot. The compounds were incubated with cells for […]
biological repeats. Error bars, s.e.m. (B) Western Blot analysis of USP9X expression levels across a subset of cell lines used in this study. Representative blot from two independent biological repeats is shown with Actin as a sample loading control. l.p. - low passage; h.p. - high passage. […]
Right, quantification of images plotted as dose-dependent colony area. […]

UO-31 cell line = assay: NCI-60 cancer cell panel, UO-31; type: cell-based, human; settings: 10 µM, 3 days
Experimental: (§1) Inhibitors were tested at 10 µM. Data shown is the mean of two technical replicates and is shown relative to the no-drug control, and relative to the time zero number of cells.

[1] = system: human dermal fibroblasts (HDF); assay: IncuCyte live-cell imaging cell death, HDF; type: cell-based; settings: 50 µM (Appendix Fig. S4E)
Experimental: Cells were seeded at varying densities (1000–8000 cells per well) after initial optimisation in a 96-well tissue culture-treated plate (Thermo Fisher Scientific). Cells were incubated o/n, and the next day, inhibitors and controls diluted in cell media were added to the cells to a final volume of 200 μL per well. Cell death was measured using PI (Sigma-Aldrich). Cells were imaged with four images per well every 2 h for up to 96 h using the IncuCyte live-cell analysis system (S3, Sartorius). Cell proliferation data were analysed using Microsoft Excel by normalising confluence to control conditions. For cell killing readouts, the number of PI-positive cells was normalised to the control conditions for each timepoint.

USP9X/USP24 chimera Δβ = biological target: T1, USP9X/USP24 chimera Δβ (Homo sapiens, UniProt Q93008, A1766S/D1761E/DEL1924-1943/K1759R/L1762V/Y1757F); assay: Ub-Rho cleavage assay, USP9X/USP24 chimera Δβ; type: biochemical
T1 construct: His/SUMO (pOPIN-S vector) (N, cleaved yes); made in house; host or cells: E. coli BL21
T1 sequence (Q93008 with tags, fused parts or gaps Y1757F/K1759R/D1761E/L1762V/A1766S/DEL1924-1943): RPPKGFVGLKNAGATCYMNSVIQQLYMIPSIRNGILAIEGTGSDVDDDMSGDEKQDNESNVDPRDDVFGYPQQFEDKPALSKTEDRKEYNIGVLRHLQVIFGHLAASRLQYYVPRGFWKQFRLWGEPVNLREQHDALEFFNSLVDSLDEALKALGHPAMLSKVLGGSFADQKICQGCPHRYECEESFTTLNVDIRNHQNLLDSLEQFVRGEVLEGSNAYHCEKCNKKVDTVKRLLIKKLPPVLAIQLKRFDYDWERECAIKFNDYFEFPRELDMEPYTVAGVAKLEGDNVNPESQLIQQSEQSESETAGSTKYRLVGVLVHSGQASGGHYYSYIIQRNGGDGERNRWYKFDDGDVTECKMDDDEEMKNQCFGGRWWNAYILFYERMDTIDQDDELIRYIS
Source text: An expression construct for the USP9X catalytic domain (aa 1551–1970, […]: Q93008-1), was codon optimised for bacterial expression, synthesised in gBlock format (Integrated DNA Technologies) and cloned into the pOPIN-S vector (Berrow et al, [2007]), which was digested with KpnI and HindIII using In-Fusion™ HD cloning (Takara Clontech). […] For the USP9X Δβ catalytic domain a deletion construct ΔE1924-K1943 and for USP9X/USP24 chimera, a construct with USP9X Y1757-A1766 replaced with the USP24 (NCBI Reference Sequence: NP_056121) aa motif […] was used. All constructs were confirmed by Sanger sequencing (AGRF).
The reaction was stopped through the addition of 10 mM citric acid. The assay was performed in 384-well format with a total reaction volume of 16 µL. Data was collected using the ClarioSTAR plate reader (BMG Labtech) at an emission of 535 nm. […] IC50 values presented in our study are the mean of three independent biological repeats unless indicated otherwise.

[2] = system: T2, USP9X Δβ catalytic domain; assay: Ub-PA suicide probe assay, USP9X Δβ; type: biochemical, human; settings: 50 µM compound
T2 construct: His/SUMO (pOPIN-S vector) (N, cleaved yes); made in house; host or cells: E. coli BL21
Source text: An expression construct for the USP9X catalytic domain (aa 1551–1970, […]: Q93008-1), was codon optimised for bacterial expression, synthesised in gBlock format (Integrated DNA Technologies) and cloned into the pOPIN-S vector (Berrow et al, [2007]), which was digested with KpnI and HindIII using In-Fusion™ HD cloning (Takara Clontech). For SPR, constructs were ordered with a GGS linker followed by a C-terminal AviTag™ (aa sequence: […]) and were cloned as above. For the USP9X Δβ catalytic domain a deletion construct ΔE1924-K1943 and for USP9X/USP24 chimera, a construct with USP9X Y1757-A1766 replaced with the USP24 (NCBI Reference Sequence: NP_056121) aa motif […] was used. All constructs were confirmed by Sanger sequencing (AGRF).
For inhibitor activity assays, USP9X catalytic domain (di-ubiquitin cleavage assay: 750 nM, ubiquitin-probe assays: 2.5 µM) was pre-incubated with USP9X inhibitors for 30 min at ambient temperature and subsequently mixed with di-ubiquitin (final concentration 2 µM) in assay buffer (25 mM Tris [pH 8.0], 150 mM NaCl, 10 mM DTT) at pH 8.0 or was mixed with ubiquitin-propargylamide (Ub-PA)/ubiquitin-vinyl sulfonate (Ub-VS) probes at a final concentration of 10 µM in assay buffer. […]

SK-MEL-2 cells = assay: NCI-60 cancer cell panel, SK-MEL-2; type: cell-based, human; settings: 10 µM, 3 days
Experimental: as §1

In the case of Cc1[nH]c2ccc(C(=O)N3CCN(S(=O)(=O)c4ccc5c(c4)OCCO5)CC3)cc2c1C [WEHI-092], the IC50 (CEP55; Homo sapiens, MDA-MB-231 cells, 24 h, read-out: apparent IC50 (CEP55 destabilisation, based on Western blotting)) is reported as 1300 nM, the CEP55 protein level (CEP55; dose-dependent, Western blot) is reported as “destabilised” and the “cell killing, UO-31” value (UO-31 cell line) is reported as “cell death”. The “toxicity to HDFs” value [1] was “non-lethal and non-toxic”, the “activity of USP9X/USP24 chimera Δβ in presence of compound” value (USP9X/USP24 chimera Δβ) was “remained fully active at concentrations up to 10 µM” and the “modification of USP9X Δβ with Ub-PA probe” value [2] was “unable to be modified by the probe”. For the same compound, the “cell growth, SK-MEL-2” value (SK-MEL-2 cells) was “stalling cell growth completely”.
